Tested on: 276233-004-R-J1-PDC KRAS spheroids with HUVEC/MSC, viability
Test: Anticancer human tumor 276233-004-R-J1-PDC patient-derived colon adenocarcinoma cell line growth inhibition [KRAS2]
Settings: for viability, T/C: stronger effect = lower value
Description: Multicellular complex tumor spheroid response to RAS pathway inhibitors in combination with a targeted agents in patient-derived cell lines with oncogenic KRAS variants from multiple cancer types
A high-throughput screen of multi-cell type tumor spheroids was designed to identify active combinations of targeted small molecules and KRAS pathway inhibitors. Complex spheroids include a stromal component modeled by human endothelial cells (HUVEC) and fibroblasts modeled by human mesenchymal stem cells (MSCs). The concentration ranges selected for each drug and investigational agent were based upon clinically achievable concentrations if the clinical Cmax of the agent was known.
Compounds. The drugs and investigational agents: BI-3406 (NSC825286), BAY-293 (NSC824723), batoprotafib (TNO155; NSC825523), sotorasib (AMG 510; NSC818433), MRTX1257 (NSC819558), elimusertib (BAY 1895344; NSC800525), molibresib (GSK525762; NSC774829), temuterkib (LY3214996; NSC803410), venetoclax (NSC766270), alisertib (NSC759677), olaparib (NSC753686), talazoparib (NSC767125), erdafitinib (NSC781556), ipatasertib (NSC767898), cabozantinib (NSC761068), nintedanib (NSC756659), abemaciclib (NSC768073), docetaxel (NSC628503), trametinib (NSC758246), and sapanisertib (NSC764658) were obtained from the National Cancer Institute (NCI) Developmental Therapeutics Program Chemical Repository. The FDA-approved anticancer drug set is available from the Developmental Therapeutics Program. […] The stock solutions were prepared in dimethyl sulfoxide (DMSO, Sigma-Aldrich, St. Louis, MO, cat. D2650) at 800-fold the tested concentration and stored at -70 degrees C prior to their use. All drugs and investigational agents were tested over a range starting from a high concentration at or near the clinical Cmax and decreasing in half-log increments. If the clinical Cmax for an agent had not been determined, the highest concentration tested was 10 microM.
Cell Culture. All cells were maintained in an incubator at 37 degrees C and 5% CO2 with 95% humidity. The PDC lines were cultured according to standard operating procedures established by the NCI PDMR (https://pdmr.cancer.gov/sops/default.htm). Briefly, all PDCs were thawed and cultured in Matrigel-coated flasks prepared with a working solution of 1X Ham's F-12 nutrient mix, without supplementation (Invitrogen, Waltham, MA, cat. 11765054), 100 U/mL penicillin-streptomycin (Invitrogen, cat. 15140122), and 2.5% Matrigel (Corning Inc., Corning, NY, cat. 354248) for the first three passages. All PDCs were cultured in complete DMEM/F-12 media containing advanced DMEM/F-12 (Invitrogen, cat. 12634028), 4.9% defined fetal bovine serum, heat inactivated (HyClone Laboratories Inc., Logan, UT, cat. SH30070.03HI), 389 ng/mL hydrocortisone (Sigma-Aldrich, cat. H4001), 9.7 ng/mL human EGF recombinant protein (Invitrogen, cat. PHG0313), 23.4 microg/mL adenine (Sigma-Aldrich, cat. A2786), 97.3 U/mL penicillin-streptomycin (Invitrogen, cat. 15140122), 1.9 mM L-glutamine (Invitrogen, cat. 25030081), and 9.7 microM Y-27632 dihydrochloride (Tocris Bioscience, Bristol, United Kingdom, cat. 1254). The PDCs were cultured in complete DMEM/F12 media without 9.7 microM Y-27632 dihydrochloride for at least two passages prior to the screen. The established cell line HOP-62 was cultured in RPMI 1640 medium, HEPES (Invitrogen, cat. 22400105) with 10% defined fetal bovine serum (HyClone Laboratories Inc., cat. SH30070.03) and 2 mM L-glutamine (Invitrogen, cat. 25030081). The pooled donor HUVEC were cultured in endothelial cell growth medium 2 (PromoCell, Heidelberg, Germany, cat. C-22011) and the hMSC were cultured in mesenchymal stem cell growth medium 2 (PromoCell, cat. C-28009). For all experiments, HUVEC and hMSC were used at passages </=5, while the malignant cell lines were used at passages </=15. […]

[1] = curve of first compound, second compound 0.1 µM
[2] = curve of first compound, second compound 0.316 µM
[3] = curve of first compound, second compound 1 µM
[4] = curve of first compound, second compound 3.16 µM
[5] = curve of first compound, second compound 10 µM
[6] = second compound 0.1 µM, first compound 0.01 µM
[7] = second compound 0.1 µM, first compound 0.0316 µM
[8] = second compound 0.1 µM, first compound 0.1 µM
[9] = second compound 0.316 µM, first compound 0.01 µM
[10] = second compound 0.316 µM, first compound 0.0316 µM
[11] = second compound 0.316 µM, first compound 0.1 µM
[12] = second compound 1 µM, first compound 0.01 µM
[13] = second compound 1 µM, first compound 0.0316 µM
[14] = second compound 1 µM, first compound 0.1 µM
[15] = second compound 3.16 µM, first compound 0.01 µM
[16] = second compound 3.16 µM, first compound 0.0316 µM
[17] = second compound 3.16 µM, first compound 0.1 µM
[18] = second compound 10 µM, first compound 0.01 µM
[19] = second compound 10 µM, first compound 0.0316 µM
[20] = second compound 10 µM, first compound 0.1 µM
[21] = second compound 0.1 µM, first compound 0.316 µM
[22] = second compound 0.1 µM, first compound 1 µM
[23] = second compound 0.1 µM, first compound 3.16 µM
[24] = second compound 0.316 µM, first compound 0.316 µM
[25] = second compound 0.316 µM, first compound 1 µM
[26] = second compound 0.316 µM, first compound 3.16 µM
[27] = second compound 1 µM, first compound 0.316 µM
[28] = second compound 1 µM, first compound 1 µM
[29] = second compound 1 µM, first compound 3.16 µM
[30] = second compound 3.16 µM, first compound 0.316 µM
[31] = second compound 3.16 µM, first compound 1 µM
[32] = second compound 3.16 µM, first compound 3.16 µM
[33] = second compound 10 µM, first compound 0.316 µM
[34] = second compound 10 µM, first compound 1 µM
[35] = second compound 10 µM, first compound 3.16 µM
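Note: cells exposed to agents for seven days before viability read.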
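Throughout, for viability, T/C: 100% = DMSO vehicle control wells and lower values mean fewer viable cells.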

| SMILES | IC50 [1] [µM] | IC50 [2] [µM] | IC50 [3] [µM] | IC50 [4] [µM] | IC50 [5] [µM] | viability, T/C [6] [%] | viability, T/C [7] [%] | viability, T/C [8] [%] | viability, T/C [9] [%] | viability, T/C [10] [%] | viability, T/C [11] [%] | viability, T/C [12] [%] | viability, T/C [13] [%] | viability, T/C [14] [%] | viability, T/C [15] [%] | viability, T/C [16] [%] | viability, T/C [17] [%] | viability, T/C [18] [%] | viability, T/C [19] [%] | viability, T/C [20] [%] | also measured |
| --- | --- | --- | --- | --- | --- | --- | --- | --- | --- | --- | --- | --- | --- | --- | --- | --- | --- | --- | --- | --- | --- |
| Cn1ncnc1[C@H]1c2n[nH]c(=O)c3cc(F)cc(c23)N[C@@H]1c1ccc(F)cc1 + CC1OCC2(CCN(c3cnc(Sc4ccnc(N)c4Cl)c(N)n3)CC2)C1N | > 0.1 | > 0.1 | > 0.1 | > 0.1 | > 0.1 | 99 | 94.3 | 85.1 | 88.3 | 74.9 | 89.6 | 82.6 | 69.4 | 65.6 | 52.8 | 59.5 | 62.9 | 64.5 | 54.2 | 54 | viability, T/C (second compound 0.1 µM, first compound 0.000316 µM): 95.8%; viability, T/C (second compound 0.1 µM, first compound 0.001 µM): 99.4%; viability, T/C (second compound 0.1 µM, first compound 0.00316 µM): 102%; viability, T/C (second compound 0.316 µM, first compound 0.000316 µM): 92.5%; viability, T/C (second compound 0.316 µM, first compound 0.001 µM): 83.5%; viability, T/C (second compound 0.316 µM, first compound 0.00316 µM): 98.1%; viability, T/C (second compound 1 µM, first compound 0.000316 µM): 88.9%; viability, T/C (second compound 1 µM, first compound 0.001 µM): 95.2%; viability, T/C (second compound 1 µM, first compound 0.00316 µM): 104%; viability, T/C (second compound 3.16 µM, first compound 0.000316 µM): 83.8%; viability, T/C (second compound 3.16 µM, first compound 0.001 µM): 70.1%; viability, T/C (second compound 3.16 µM, first compound 0.00316 µM): 68.8%; viability, T/C (second compound 10 µM, first compound 0.000316 µM): 68.8%; viability, T/C (second compound 10 µM, first compound 0.001 µM): 66.4%; viability, T/C (second compound 10 µM, first compound 0.00316 µM): 64.9% |
| COc1cc2nccc(Oc3ccc(NC(=O)C4(C(=O)Nc5ccc(F)cc5)CC4)cc3)c2cc1OC + C=CC(=O)N1CCN(c2nc(=O)n(-c3c(C)ccnc3C(C)C)c3nc(-c4c(O)cccc4F)c(F)cc23)C(C)C1 | > 10 | > 10 | > 10 | > 10 | > 10 |  | 93.5 | 109 |  | 97.4 | 112 |  | 89.1 | 91.2 |  | 85.5 | 79.8 |  | 82.3 | 74.9 | viability, T/C [21]: 96%; viability, T/C [22]: 84.7%; viability, T/C [23]: 101%; viability, T/C (second compound 0.1 µM, first compound 10 µM): 104%; viability, T/C [24]: 83.7%; viability, T/C [25]: 91.3%; viability, T/C [26]: 87.4%; viability, T/C (second compound 0.316 µM, first compound 10 µM): 76.3%; viability, T/C [27]: 84.9%; viability, T/C [28]: 72.1%; viability, T/C [29]: 74.5%; viability, T/C (second compound 1 µM, first compound 10 µM): 75.1%; viability, T/C [30]: 102%; viability, T/C [31]: 76.7%; viability, T/C [32]: 72.4%; viability, T/C (second compound 3.16 µM, first compound 10 µM): 114%; viability, T/C [33]: 69.1%; viability, T/C [34]: 81.8%; viability, T/C [35]: 88.5%; viability, T/C (second compound 10 µM, first compound 10 µM): 76% |
| CC(=O)OC12COC1CC(O)C1(C)C(=O)C(O)C3=C(C)C(OC(=O)C(O)C(NC(=O)OC(C)(C)C)c4ccccc4)CC(O)(C(OC(=O)c4ccccc4)C21)C3(C)C (stereo not given) + CNCc1ccccc1-c1csc(C(C)Nc2nc(C)nc3cc(OC)c(OC)cc23)c1 | > 3.16 | > 3.16 | > 3.16 | 0.0216 | < 0.01 | 102 | 96.3 | 83.4 | 92 | 86.1 | 77 | 103 | 91.4 | 89.9 | 105 | 0.58 | 5.25 | 4.38 | 2.71 | 6.51 | viability, T/C [21]: 81.1%; viability, T/C [22]: 105%; viability, T/C [23]: 87.5%; viability, T/C [24]: 87.8%; viability, T/C [25]: 93.8%; viability, T/C [26]: 95.7%; viability, T/C [27]: 111%; viability, T/C [28]: 119%; viability, T/C [29]: 117%; viability, T/C [30]: 1.73%; viability, T/C [31]: 1.78%; viability, T/C [32]: 104%; viability, T/C [33]: 1.17%; viability, T/C [34]: 110%; viability, T/C [35]: 0.46% |
| CC1(C)CCC(CN2CCN(c3ccc(C(=O)NS(=O)(=O)c4ccc(NCC5CCOCC5)c([N+](=O)[O-])c4)c(Oc4cnc5[nH]ccc5c4)c3)CC2)=C(c2ccc(Cl)cc2)C1 |  |  |  |  |  |  |  |  |  |  |  |  |  |  |  |  |  |  |  |  | viability, T/C (compound 0.0316 µM): 93.5% [middle of 5 runs]; viability, T/C (compound 0.1 µM): 88.8% [middle of 5 runs]; viability, T/C (compound 0.316 µM): 102% [middle of 5 runs]; viability, T/C (compound 1 µM): 93.4% [middle of 5 runs]; IC50 (curve of compound): > 10 µM |
